Measured values reported in EP3388439A1, “BIOTIN-CONJUGATED N-ACETYL GLYCOL SPLIT HEPARIN” (Leadiant Biosciences SA, priority 2017, dated 2018).

How the values were obtained:
[1] = system: U87MG (human glioblastoma astrocytoma); experiment: Cell adhesion assay on matrigel coated wells; format: cell-based; details: treated 18-20h
Protocol: Cell surface, non-integrin molecules such as heparan sulfate proteoglycans (HSPGs) may be involved in the regulation of early adhesive stages of cell-ECM interactions. A cell adhesion assay has been employed to determine if the newly designed heparanase inhibitors were able to interfere with adhesion properties of cancer cells.
For the assay set-up, U87MG (human glioblastoma astrocytoma) cells were treated for 18-20h with test compounds, in complete medium supplemented with 10% FCS. Then, cells were collected, washed in complete medium, and added to matrigel coated wells in triplicate, at previously identified optimal seeding density, and incubated at 37 °C in complete medium for times ranging from 15 minutes to 4h (Goldshmidt et al, FASEB, 2003). After incubation, the wells were washed three times with serum-free medium and the remaining firmly attached cells were stained with crystal violet 0.1 reagent. Optical density was measure at 500 nm by Victor 3 (Perkin-Elmer) plate analyzer. Each experiment was repeated three times.

heparanase = biological target: T1, heparanase (Homo sapiens, UniProt Q9Y251); experiment: Fondaparinux heparanase assay (AGA*IA assay), colorimetric WST-1; format: biochemical; details: 2.5 nM heparanase, 100 µM fondaparinux, pH 5.0, 3 h at 37°C
T1 sequence (Q9Y251 158-543 limits assumed): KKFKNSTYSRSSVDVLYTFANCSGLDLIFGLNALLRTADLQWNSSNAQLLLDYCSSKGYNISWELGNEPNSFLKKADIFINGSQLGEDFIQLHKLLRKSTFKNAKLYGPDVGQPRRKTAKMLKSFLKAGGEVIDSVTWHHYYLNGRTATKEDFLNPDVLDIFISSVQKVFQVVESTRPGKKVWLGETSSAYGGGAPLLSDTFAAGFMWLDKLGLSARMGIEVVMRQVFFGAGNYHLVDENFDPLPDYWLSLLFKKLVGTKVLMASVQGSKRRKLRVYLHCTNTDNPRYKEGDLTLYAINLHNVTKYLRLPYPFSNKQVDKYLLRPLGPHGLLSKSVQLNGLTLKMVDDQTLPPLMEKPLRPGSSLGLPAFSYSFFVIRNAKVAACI
T1 sequence (Q9Y251 36-109 limits assumed): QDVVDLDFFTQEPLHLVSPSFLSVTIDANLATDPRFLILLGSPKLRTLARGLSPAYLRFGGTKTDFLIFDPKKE
Protocol: In order to determinate their activity as potent heparanase inhibitor, compounds were tested in a simple, accurate and robust microplate assay based on the cleavage of the synthetic heparin fragment, the pentasaccharide Fondaparinux (AGA*IA). This assay was originally developed by Hammond and coworkers [Hammond E, Li CP, Ferro V. Development of a colorimetric assay for heparanase activity suitable for kinetic analysis and inhibitor screening. Anal. Biochem. 2010, 396(1), 112-116], where Fondaparinux corresponds to the methyl glycoside of the antithrombin III (ATIII)-activating pentasaccharide sequence of heparin. Fondaparinux is cleaved by heparanase to generate a reducing disaccharide, which can be quantitatively measured via a colorimetric or a fluorescence assay, the last by the fluorescent sensor polymer-H [Schiemann S, Lühn S, Alban S. Development of both colorimetric and fluorescence heparinase activity assays using fondaparinux as substrate. […]
Assay was carried out with 100 µl/well of assay solution containing 40 mM sodium acetate buffer (pH 5.0), 100 µM fondaparinux, 2.5 nM heparanase and serial dilutions of test compounds (tested in triplicate). […] Then, the absorbance at 560 nm was measured through a microplate reader (Victor 3, Perkin Elmer).
Finally, the measurements were corrected by subtracting both the reagent background and the inner absorbance value of test compound. […]

[2] = system: U87MG (human glioblastoma astrocytoma); experiment: SRB Cell Cytotoxicity Assay; format: cell-based; details: 72h
Source text: (§1) SRB Cell Cytotoxicity Assay is based on the quantitative staining of cellular proteins by sulforhodamine B (SRB). This assay can be used for high-throughput drug screening (Vichai & Kirkitara, Nature Protocol. 2006, 1, 112). Sulforhodamine B is an anionic aminoxanthene dye that forms an electrostatic complex with the basic amino acid residues of proteins under moderately acid conditions, which provides a sensitive linear response.
(§2) To assess a putative antiproliferative activity of the selected compounds, HT1080 (human fibrosarcoma), U87MG (human glioblastoma astrocytoma) and U2OS (human osteosarcoma) cell lines were treated for 72h, in triplicate, with increasing concentrations of heparanase inhibitors. Inhibition of cell proliferation was then measured by the classical colorimetric SRB Cell Cytotoxicity assay. Absorbance was measured by spectrophotometer at a wavelength of 510 nm and cell proliferation was determined as percent with respect to control cells (cells treated with the vehicle alone). EC50 values were then determined by GraphPad Prism.
(§3) Results are summarized in the following Table 3, reporting the ability of anti-heparanase agents (test compounds) to reduce tumor growth (cytotoxic effect) on three tumor cell lines, evaluated at three concentrations. Results were expressed as a percentage of growth versus control.

[3] = system: U2OS (human osteosarcoma); experiment: SRB Cell Cytotoxicity Assay; format: cell-based; details: 72h
Source text: as §1, §2, §3

[4] = system: HT1080 (human fibrosarcoma); experiment: SRB Cell Cytotoxicity Assay; format: cell-based; details: 72h
Source text: as §1, §2, §3

[5] = system: luciferase-labelled CAG myeloma cells; details: NOD/SCID mice, 1000 µg/mouse intraperitoneal twice a day from day 9 to day 29; Figure 2
Protocol: Briefly, luciferase-labelled CAG myeloma cells (5x106; same cells) were injected subcutaneously into NOD/SCID mice (n=5). Mice were treated with compounds (1000 µg/mouse, injected intraperitoneal twice a day, starting on day 9 of cell inoculation).
Mice were injected with cells on day ONE and the first injection of compounds was given starting on day NINE, twice a day, including weekends. Tumor growth was examined by IVIS imaging prior to the first injection of compounds and once a week thereafter. The experiment was terminated on day TWENTYNINE (Figure 2).
IVIS imaging. Bioluminescent imaging of the luciferase-expressing tumors was performed with a highly sensitive, cooled charge coupled device (CCD) camera mounted in a light-tight specimen box (IVIS; Xenogen Corp., Waltham, MA). Briefly, mice were injected intraperitoneally with D-luciferin substrate at 150 mg/kg, anesthetized and placed onto a stage inside the light-tight camera box, with continuous exposure to isoflurane (EZAnesthesia, Palmer, PA). Light emitted from the bioluminescent cells was detected by the IVIS camera system with images quantified for tumor burden using a log-scale color range set at 5×10^4 to 1×10^7 and measurement of total photon counts per second (PPS) using Living Image software (Xenogen).

| Substance | Test compounds adhesion versus basal (100%) ([1]; 0.1 µM) [%] | Test compounds adhesion versus basal (100%) ([1]; 1 µM) [%] | Test compounds adhesion versus basal (100%) ([1]; 10 µM) [%] | IC50 (heparanase) [nM] | Percentage tumor growth versus control U87MG ([2]; 11.1 µM) [%] | Percentage tumor growth versus control U87MG ([2]; 33.3 µM) [%] | Percentage tumor growth versus control U87MG ([2]; 100 µM) [%] | Percentage tumor growth versus control U2OS ([3]; 11.1 µM) [%] | Percentage tumor growth versus control U2OS ([3]; 33.3 µM) [%] | Percentage tumor growth versus control U2OS ([3]; 100 µM) [%] | Percentage tumor growth versus control HT1080 ([4]; 11.1 µM) | Percentage tumor growth versus control HT1080 ([4]; 33.3 µM) | Percentage tumor growth versus control HT1080 ([4]; 100 µM) [%] | inhibition of CAG myeloma cell growth [5] |
| --- | --- | --- | --- | --- | --- | --- | --- | --- | --- | --- | --- | --- | --- | --- |
| N-desulfated N-acetylated glycol split heparin -Reducing end-NH-CH2-1,2,3-Triazole-4, N-Glycine-CONH-(CH2)5-NH-Biotin with a substitution degree on the R3 position of about 2 % [SST0764NA1] | 83.21 | 19.82 | 12.79 | ~4 | 90.61 | 86.29 | 76.44 | 80.70 | 76.00 | 66.90 | ~ 100% | ~ 100% | 95.15 | – |
| N-desulfated N-acetylated glycol split heparin -(GGGS)3-NH-(CH2)5-NH-Biotin with a substitution degree on the R1 and/or R1' positions of about 7% [SST0761NA1] | 57.55 | 13.25 | 21.46 | ~3 | 84.47 | 75.00 | 73.23 | 85.3 | 79.5 | 69.3 | 99.98% | 98.83% | 75.02 | reached statistical significance |
